In PMC2362091, “Expression of V1A and GRP receptors leads to cellular transformation and increased sensitivity to substance-P analogue-induced growth inhibition” (British Journal of Cancer, 2005):
Values after ≈ are worked out from the molar mass of the structure shown. Like-named read-outs stand apart in the source and are kept apart here. Square brackets hold non-standard residues; d marks the D form. Peptide text beside a SMILES is read from it. NMeF = CN[C@@H](Cc1ccccc1)C(=O)O

Experiments:
[1] = test system: CHO-WT cells; assay: Chemosensitivity, MTT assay, wild-type cells; type: cell-based; details: 48 h, absence of serum; read-out: IC50, inhibition of proliferation (MTT)
Procedure: (§1) In some assays, MTT (3-[4,5-dimethylthiazol-2yl]-2,5-diphenyl tetrazolium bromide) formazan production (Sigma) was used to measure proliferation as per the manufacturer's instructions.
(§2) Figure 4 Effect of neuropeptide on chemosensitivity. Wild-type CHO-K1 cells (left) and cells expressing the V1A (middle) or GRP (right) receptor were plated at a density of 1e^4 cells per well of a 96-well tissue culture plate in DMEM with 10% FCS and incubated overnight 37°C. […] Cell viability was assessed by MTT staining.

[2] = test system: CHO-GRPr cells; assay: Chemosensitivity, MTT assay, GRPr cells; type: cell-based
Procedure: as §1, §2

[3] = test system: CHO-V1Ar cells; assay: cells; type: cell-based
Procedure: as §1, §2

[4] = test system: untransfected CHO-K1 cells; assay: Intracellular Ca2+ (FURA-2), untransfected cells; type: cell-based; details: data not shown
[5] = test system: ERK phosphorylation in untransfected CHO cells; assay: ERK phosphorylation (Western blot), untransfected CHO cells; type: cell-based; details: data not shown
Procedure: (§3) Quiescent cell cultures in six-well plates were treated as described in figure legends and lysed at 4°C in 0.25 ml lysis buffer containing; 25 mM HEPES pH 7.4, 0.3 M NaCl, 1.5 mM MgCl2, 0.2 mM EDTA, 0.5% Triton X-100, 20 mM β-glycerphosphate, 0.5 mM dithiothreitol, 1 mM sodium orthovanadate and protease inhibitors (Boehringer Mannheim, Sussex, UK; prepared as per the manufacturer's instructions). Lysates were clarified by centrifugation, equilibrated for protein using BCA protein assay reagent (Perbio Science, Cheshire, UK) and denatured by boiling (5 min) in SDS–PAGE loading buffer. In all, 20 μl lysate/lane was resolved on 12% SDS–PAGE gels and electroblotted onto nitrocellulose membranes. Membranes were blocked in 3% bovine serum albumin in PBS containing 0.05% Tween-20. ERK1/2 phosphorylation was determined using 1 : 1000 dilution of the primary antibody followed by the appropriate HRP-labelled goat IgG (DAKO, UK) diluted 1 : 5000. Bands were visualized using enhanced chemiluminescence (ECL plus, Amersham) and quantified using a phosphor imager (Storm).
In this study, ERK activation was measured in CHO cells expressing GRP or V1A receptors in response to the appropriate neuropeptide or substance-P analogue. Activation was estimated in immunoblots from stimulated lysates using a phosphorylation state-specific antibody. […]

[6] = test system: V1A receptor expressing CHO-K1 cells; assay: Clonogenic assay in semisolid media, V1A receptor expressing cells; type: cell-based; details: 30 μM, 0.3% agar, 1% FCS, 8 days
Procedure: (§4) CHO-K1 (2x10^4) viable cells were mixed with DMEM containing 0.3% agarose in the presence or absence of mediators and layered over a solid base of 0.5% agarose in DMEM in 35 mm plastic dishes. The cultures were incubated at 37°C for 1–10 days, and then stained with 1 mg ml^−1 nitro-blue tetrazolium (NBT, Sigma) overnight at 37°C. Colonies from 10 separate fields were counted using a microscope with a × 4 objective. Cloning efficiency is calculated as the percentage of original number of seeded cells forming colonies of >6 cells.
(§5) Figure 3 Effect of SP-D and SP-G on clonal growth. (A) Cells were grown in 0.3% agar with 1% FCS for 8 days in the presence or absence (open bar) of 30 μM SP-D (black bar) or SP-G (grey bar). […] Aggregation assay. (B) Wild-type, GRPR-transfected and V1AR-transfected CHO-K1 cells were plated into low adhesion tissue culture plates on top of a layer of 0.5% agar in DMEM containing 5% FCS at a density of 5 × 10^4 ml^−1 in the presence of varying concentrations of SP-G. Cells were maintained in culture for 7 days, briefly trypsinised to dissagregate clusters and viable cells counted by propidium iodide exclusion.

[7] = test system: GRPR-transfected CHO-K1 cells; assay: Aggregation assay (anchorage-independent growth), GRPR-transfected cells; type: cell-based; details: low adhesion plates, 5% FCS, 7 days, viable cells counted
Procedure: (§6) CHO-K1 cells were suspended in DMEM in the presence of 5% FCS and seeded into low adhesion tissue culture plates on top of a layer (1 ml) of 0.5% agar. […] Cells were maintained in culture for 7 days briefly trypsinised to disaggregate clusters and viable cells counted.
as §5

[8] = test system: GRP receptor expressing CHO-K1 cells; assay: Clonogenic assay in semisolid media, GRP receptor expressing cells; type: cell-based; details: 30 μM, 0.3% agar, 1% FCS, 8 days
Procedure: as §4, §5

[9] = test system: ERK phosphorylation in V1A receptor expressing CHO cells; assay: ERK phosphorylation (Western blot), V1A receptor expressing CHO cells; type: cell-based; details: for stimulation of ERK: at 50 μM
Procedure: as §3
(§7) In this study, ERK activation was measured in CHO cells expressing GRP or V1A receptors in response to the appropriate neuropeptide or substance-P analogue. Activation was estimated in immunoblots from stimulated lysates using a phosphorylation state-specific antibody. Lysates from quiesced cells stimulated for […] with either neuropeptide or SP-D or SP-G were separated on 12% gels and blotted for pERK2 or total ERK1/2.
Figure 6 (A) ERK phosphorylation by neuropeptides. Quiescent GRP (left) or V1A (right) receptor expressing CHO cells were stimulated for 5 min with neuropeptide at the indicated concentrations. […] Representative Western blots are shown. Bar graphs represent the mean optical density (mean±s.e.m.) of four separate experiments. (B) ERK phosphorylation by substance-P analogues. Quiescent GRP (left) or V1A (right) receptor expressing CHO cells were stimulated for 5 min with SP-D (filled bars) or SP-G (open bars) at the indicated concentrations. […] Representative Western blots are shown. […]

[10] = test system: vector control CHO-K1 cells; assay: Clonogenic assay in semisolid media, vector control cells; type: cell-based; details: 30 μM, 0.3% agar, 1% FCS, 8 days
Procedure: as §4, §5

[11] = molecular target: T1, human V1A receptor (Homo sapiens, UniProt P37288); assay: Intracellular Ca2+ (FURA-2), V1A-expressing CHO cells; type: cell-based; details: in absence of AVP
T1 construct: CHO-K1 cells were transfected with full-length human GRP receptor or human V1A receptor; expressed in transfected cells
Procedure: (§8) Cells were trypsinised and loaded with fura-2-tetraacetoxymethylester AME (FURA-2-AM, 1 μM) in calcium-free Hank's balanced salt solution for 10 min at 37°C. The cells were pelleted and resuspended in 2 ml of Hank's balanced salt solution containing 1.8 mM CaCl2. Fluorescence was recorded in a fluorescence spectrophotometer (Perkin Elmer). Alternate dual wavelength excitation at 380 and 410 nm allowed ratiometric analysis of bound and unbound FURA-2AM when measured at 505 nm. [Ca^2+] was calculated according to the equation [Ca^2+]=K(F−Fmin)/(Fmax−F), where F is the ratio of the unknown sample, Fmax is the ratio after the addition of 0.1% Triton X-100 and Fmin is the ratio after Ca^2+ chelation with 10 mM EGTA. K is the dissociation constant for Fura-2, which is 224 nM.
(§9) Quiescent GRP (A, B) or V1A (C, D) receptor expressing CHO cells were incubated with FURA-2AM for 15 min at 37°C and ratiometric fluorescence monitored at 37°C. […] Concentration–response curves to vasopressin were carried out in control cells and in cells treated with 1 or 10 μM SP-D (C) or SP-G (D). Results are expressed as % maximum control response to neuropeptide and represent the mean±s.e.m. of four experiments.

[12] = design: method as in Clive et al, 2001; details: at therapeutic plasma concentrations; ref Clive et al, 2001; cited from earlier work
[13] = test system: ERK phosphorylation in GRP receptor expressing CHO cells; assay: ERK phosphorylation (Western blot), GRP receptor expressing CHO cells; type: cell-based; details: for maximal stimulation of ERK: at 50 μM
Procedure: as §3, §7
Figure 6 (A) ERK phosphorylation by neuropeptides. Quiescent GRP (left) or V1A (right) receptor expressing CHO cells were stimulated for 5 min with neuropeptide at the indicated concentrations. […] Representative Western blots are shown. Bar graphs represent the mean optical density (mean±s.e.m.) of four separate experiments. (B) ERK phosphorylation by substance-P analogues. Quiescent GRP (left) or V1A (right) receptor expressing CHO cells were stimulated for 5 min with SP-D (filled bars) or SP-G (open bars) at the indicated concentrations. […] Representative Western blots are shown. Bar graphs represent the mean optical density (mean±s.e.m.) of four separate experiments.
Figure 7 Effect of pertussis toxin (PTX) on ERK phosphorylation. Confluent cultures of GRP (left) or V1A (right) receptor expressing CHO cells were quiesced overnight in the presence or absence of 100 ng ml^−1 pertussis toxin. Cells were stimulated for 5 min with 30 μM SP-D or SP-G or 1 nM neuropeptide as indicated. […] Representative Western blots are shown.

[14] = test system: V1AR-transfected CHO-K1 cells; assay: Aggregation assay (anchorage-independent growth), V1AR-transfected cells; type: cell-based; details: low adhesion plates, 5% FCS, 7 days, viable cells counted
Procedure: as §6, §5

[15] = molecular target: T2, human GRP receptor (Homo sapiens, UniProt P30550); assay: Intracellular Ca2+ (FURA-2), CHO-GRP cells; type: cell-based; details: in absence of GRP
T2 construct: CHO-K1 cells were transfected with full-length human GRP receptor or human V1A receptor; expressed in transfected cells
Procedure: as §8, §9

[16] = molecular target: T1, human V1A receptor; assay: Receptor binding, [125I]-AVP, CHO-K1-V1Ar cells; details: V1A over GRP receptor, from Ki
Procedure: CHO-K1 cells were maintained in DMEM supplemented with 10% (v v^−1) foetal bovine serum (heat-inactivated at 57°C for 1 h) 50 U ml^−1 penicillin, 50 μg ml^−1 streptomycin and 5 μg ml^−1 L-glutamine in a humidified atmosphere of 5% CO2:95% air at 37°C. CHO-K1 cells were transfected with full-length human GRP receptor or human V1A receptor using lipofectamine plus (Invitrogen) as per the manufacturer's instructions. Stable cell cultures were maintained in the presence of 400 μg ml^−1 G418-sulphate.
The binding parameters Kd and Bmax were calculated from competition binding isotherms with unlabelled ligand ([DeBlasi et al, 1989]).

[17] = 48 h, absence of serum, read-out: IC50, inhibition of proliferation (MTT)
[18] = 48 h serum-free, no neuropeptide, read-out: IC50 (MTT), control cells of neuropeptide protection experiment

T1 sequence (P37288 whole entry): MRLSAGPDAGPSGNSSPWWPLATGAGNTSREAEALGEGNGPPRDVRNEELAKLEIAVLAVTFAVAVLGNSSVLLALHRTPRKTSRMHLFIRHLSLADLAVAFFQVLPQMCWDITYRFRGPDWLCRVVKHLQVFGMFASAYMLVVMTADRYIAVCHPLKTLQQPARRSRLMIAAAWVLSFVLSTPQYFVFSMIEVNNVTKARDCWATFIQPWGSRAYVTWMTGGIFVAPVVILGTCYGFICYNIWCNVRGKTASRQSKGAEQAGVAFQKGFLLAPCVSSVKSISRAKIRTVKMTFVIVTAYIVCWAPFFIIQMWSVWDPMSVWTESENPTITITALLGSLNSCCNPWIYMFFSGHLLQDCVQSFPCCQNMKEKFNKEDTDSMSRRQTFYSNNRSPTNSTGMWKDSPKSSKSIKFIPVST
T2 sequence (P30550 whole entry): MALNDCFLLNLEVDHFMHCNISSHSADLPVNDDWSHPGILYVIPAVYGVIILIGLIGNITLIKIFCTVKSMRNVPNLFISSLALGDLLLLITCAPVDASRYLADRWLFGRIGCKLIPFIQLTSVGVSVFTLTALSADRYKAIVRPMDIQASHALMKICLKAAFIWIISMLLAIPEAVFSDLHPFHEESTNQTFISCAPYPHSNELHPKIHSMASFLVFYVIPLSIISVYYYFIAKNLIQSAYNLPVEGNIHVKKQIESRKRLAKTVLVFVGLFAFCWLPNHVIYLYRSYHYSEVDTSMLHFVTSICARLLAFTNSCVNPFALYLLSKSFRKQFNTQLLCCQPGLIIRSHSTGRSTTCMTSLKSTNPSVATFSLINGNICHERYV

COc1cc([C@@H]2c3cc4c(cc3[C@@H](O[C@@H]3O[C@@H]5CO[C@@H](C)O[C@H]5[C@H](O)[C@H]3O)[C@H]3COC(=O)[C@H]23)OCO4)cc(OC)c1O [etoposide]
IC50 [1]: 12.4 ± 3.1 µg/mL (≈ 21.1 µM) | IC50 [2, 17]: 8.1 ± 2.3 µg/mL (≈ 13.8 µM) | IC50 [2, 18]: 6.3 µg/mL (≈ 10.7 µM) | IC50 [3, 17]: 14.2 ± 4 µg/mL (≈ 24.1 µM) | IC50 [3, 18]: 13 µg/mL (≈ 22.1 µM)

NC(=O)CC[C@@H]1NC(=O)[C@H](Cc2ccccc2)NC(=O)[C@H](Cc2ccc(O)cc2)NC(=O)[C@@H](N)CSSC[C@@H](C(=O)N2CCC[C@H]2C(=O)N[C@@H](CCCN=C(N)N)C(=O)NCC(N)=O)NC(=O)[C@H](CC(N)=O)NC1=O [AVP, arginine vasopressin]
increase in MTT accumulation compared to control cells ([3]; 50 nM neuropeptide, at 40 μg ml^−1 etoposide, 48 h): 92%

CSCC[C@H](NC(=O)[C@H](CC(C)C)NC(=O)[C@H](Cc1c[nH]cn1)NC(=O)CNC(=O)[C@@H](NC(=O)[C@H](C)NC(=O)[C@H](Cc1c[nH]c2ccccc12)NC(=O)[C@H](Cc1c[nH]cn1)NC(=O)[C@H](CC(N)=O)NC(=O)CNC(=O)[C@H](CCCNC(=N)N)NC(=O)[C@@H]1CCCN1C(=O)[C@H](Cc1ccc(O)cc1)NC(=O)[C@H](CCSC)NC(=O)[C@H](CCCCN)NC(=O)[C@@H](NC(=O)[C@H](CC(C)C)NC(=O)[C@@H](NC(=O)[C@@H](NC(=O)CNC(=O)CNC(=O)CNC(=O)[C@H](C)NC(=O)[C@@H]1CCCN1C(=O)[C@H](CC(C)C)NC(=O)[C@@H]1CCCN1C(=O)[C@@H](N)C(C)C)[C@@H](C)O)C(C)C)[C@@H](C)O)C(C)C)C(N)=O [GRP, gastrin-releasing peptide]
change in [Ca2+]i [4]: neither GRP nor AVP produced a significant change | stimulation of ERK phosphorylation [5]: Neither AVP nor GRP produced any stimulation

CSCC[C@H](NC(=O)[C@H](CC(C)C)NC(=O)[C@@H](Cc1c[nH]c2ccccc12)NC(=O)[C@H](Cc1ccccc1)N(C)C(=O)[C@@H](Cc1c[nH]c2ccccc12)NC(=O)[C@@H](N)CCCNC(=N)N)C(N)=O [SP-G, [Arg^6,D-Trp^7,9,N^mePhe^8]-substance-P (6–11)] (H-R[dW][NMeF][dW]LM-NH2; N-terminus and C-terminus assumed)
colony formation [6]: significantly reduced colony formation | cell growth in aggregation assay [7]: able to inhibit cell growth | colony formation [8]: significantly reduced colony formation | effect of pertussis toxin pretreatment on ERK activation by the substance ([9]; 100 ng ml^−1 PTX overnight, AVP, 20 μM SP-G, 1 μM LPA): completely inhibited | stimulation of ERK [9]: 4.3 fold | cloning efficiency [10]: no effect | direct mobilisation of intracellular calcium [11]: did not mobilise intracellular calcium directly | toxicity in phase I clinical trial [12]: minimal toxicity | maximal stimulation of ERK [13]: 2.1 fold | cell growth in aggregation assay [14]: able to inhibit cell growth | change in [Ca2+]i on their own [15]: no change | selectivity for the V1A receptor [16]: six

CC(C)C[C@H](NC(=O)[C@H](CC(C)C)NC(=O)[C@@H](Cc1c[nH]c2ccccc12)NC(=O)[C@H](Cc1ccccc1)NC(=O)[C@@H](Cc1c[nH]c2ccccc12)NC(=O)[C@H](CCC(N)=O)NC(=O)[C@@H](Cc1ccccc1)NC(=O)[C@@H]1CCCN1C(=O)[C@H](CCCCN)NC(=O)[C@@H]1CCCN1C(=O)[C@H](N)CCCNC(=N)N)C(N)=O [SP-D, [D-Arg^1,D-Phe^5,D-Trp^7,9,Leu^11]-substance-P] (H-[dR]PKP[dF]Q[dW]F[dW]LL-NH2; N-terminus and C-terminus assumed)
colony formation [6]: significantly reduced colony formation | cell growth in aggregation assay [7]: able to inhibit cell growth | colony formation [8]: significantly reduced colony formation | stimulation of ERK [9]: 2 fold | cloning efficiency [10]: no effect | direct mobilisation of intracellular calcium [11]: did not mobilise intracellular calcium directly | concentration at which activation of ERK was evident [13]: 3 µM | effect of pertussis toxin pretreatment on ERK activation by the substance ([13]; 100 ng ml^−1 PTX overnight, bombesin, 10 μM SP-D, 1 μM LPA): completely abolished | maximal stimulation of ERK [13]: 2.8 fold | cell growth in aggregation assay [14]: able to inhibit cell growth | change in [Ca2+]i on their own [15]: no change
